# Test results taken from ChEMBL document CHEMBL5614455, “Novel Azepino[4,5-b]indolone as cGAS Inhibitors for Treating Immune-Mediated Diseases” (ACS Med Chem Lett, 2024).
# Biological target: Cyclic GMP-AMP synthase (Homo sapiens, UniProt Q8N884)
# Experiment: Inhibition of full length his-tagged human recombinant cGAS extracted from Escherichia coli BL21 (DE3) incubated for 3 hrs by rapidfire 365 mass spectrometry analysis
# Chain of Cyclic GMP-AMP synthase (Q8N884 whole entry): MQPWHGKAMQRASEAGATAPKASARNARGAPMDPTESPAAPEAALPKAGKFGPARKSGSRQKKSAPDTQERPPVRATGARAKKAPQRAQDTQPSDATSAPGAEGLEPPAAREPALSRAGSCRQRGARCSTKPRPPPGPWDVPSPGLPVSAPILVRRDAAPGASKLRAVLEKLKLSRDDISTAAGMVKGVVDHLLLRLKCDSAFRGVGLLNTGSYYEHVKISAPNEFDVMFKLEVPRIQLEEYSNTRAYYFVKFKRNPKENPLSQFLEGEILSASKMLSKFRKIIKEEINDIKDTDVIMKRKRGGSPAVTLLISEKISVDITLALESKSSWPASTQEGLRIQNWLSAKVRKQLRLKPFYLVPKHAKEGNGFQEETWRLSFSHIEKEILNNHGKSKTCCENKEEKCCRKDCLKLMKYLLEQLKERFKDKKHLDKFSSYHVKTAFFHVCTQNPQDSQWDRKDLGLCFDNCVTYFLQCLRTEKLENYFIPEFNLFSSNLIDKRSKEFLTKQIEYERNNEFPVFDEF
row,IC50 [nM],Structure (SMILES)
1,8,COCC[C@@H]1CNC(=O)[C@@H](C)c2c1[nH]c1c(Cl)c(Cl)cc(NCCO)c21
2,8,CC(F)(F)C[C@@H]1CNC(=O)Cc2c1[nH]c1c(Cl)c(Cl)cc(CC#N)c21
3,7,C[C@@H]1C(=O)NCCc2[nH]c3c(Cl)c(Cl)cc(OCCCO)c3c21
4,5,Cn1ncc(-c2cc(Cl)c(Cl)c3[nH]c4c(c23)CC(=O)NCC4CC(=O)O)n1 (stereo unspecified)
5,8,COCCCOc1cc(Cl)c(Cl)c2[nH]c3c(c12)[C@H](C)C(=O)NCC3
6,2,C[C@@H]1C(=O)NCCc2[nH]c3c(Cl)c(Cl)cc(OCC#N)c3c21
